The source of these data is patent publication US11098040B2, “Compounds and methods of use” (Ferro Therapeutics, Inc., priority 2018, dated 2021).

Each structure is given as a SMILES string.

One data set has as its system MDA-MB-435S. Kind of data set: Cell viability assay (CellTiter Glo), melanoma cell line MDA-MB-435S. The format is cell-based. The settings on record: Homo sapiens, 96 hours. As for the experimental part: (§1) Cell viability assay was performed to assess the potency of the compounds in human cancer cell lines KP4 (pancreatic ductal adenocarcinoma), MiaPaCa-2 (pancreatic carcinoma), AsPC-1 (pancreatic adenocarcinoma, ascites), 143B (osteosarcoma), and SJSA-1 (osteosarcoma). Selected compounds were also assayed in a human breast epithelial cell line MCF-10A, a nontumorigenic cell line as a control to assess differential activity. Cells at a density of 500-5,000 cells/well were seeded in 96-well plates and incubated at 37° C. overnight. A series of 9 different concentrations of compound stocks (500×) were created by 3-fold serial dilution in DMSO. These compounds were further diluted in culture media and then added to cells so that the final DMSO concentration was equal to 0.25% or less. After 96 hours of incubation, 50 μL of CellTiter Glo reagent (Promega) was added to each well and luminescence was measured after 10 minutes using EnVision (PerkinElmer). Compounds titrated from top concentration of up to 30 μM. The select compounds were tested initially from 30 μM as the top concentration in duplicates (range of 4.6 nM-30 μM). […] Luminescence from cells treated with DMSO alone was set as Max and % of inhibition was calculated as follows: Inhibition %=(Max-Sample value)/Max*100. Data was analyzed using XL-fit software (ID Business Solutions Ltd.). IC50, relative IC50, or % of top inhibition was calculated.
(§2) A group of selected analogs were further profiled in cell viability assays described above in multiple additional cancer cell lines, including lung cancer, melanoma, hepatocarcinoma, pancreatic cancer, leukemia, lymphoma, ovarian cancer, breast cancer, colon cancer, and sarcoma cell lines. Initial cell seeding numbers were adjusted for each cell line. Typically, 500-5000 cells/well for adherent cells and 5000-10000/well for suspension cells were seeded in 96-well plates.
Usually IC50 stands for the point on the concentration scale where inhibition reaches its midpoint. In the case of `C[C@H]1Cc2c([nH]c3ccccc23)[C@H](c2ccc([Si](C)(C)C)cc2)N1C(=O)CCl` [Example 106], the IC50 is 17 nM.

Consider `C[C@H]1Cc2c([nH]c3ccccc23)[C@H](c2ccc(C3CCCCC3)cc2)N1C(=O)CCl` [Example 110], for which inhibition was half-maximal at 14 nM (IC50).

The subject of the next data set is HT-1080 luc2. The data set can be described thus: Cell viability assay (CellTiter Glo), fibrosarcoma HT-1080 luc2. The format is cell-based. The settings on record: Homo sapiens, fibrosarcoma expressing a luciferase gene, 96 hours, CellTiter Glo, read-out: IC50 HT-1080 luc2. As for the experimental part:
as §1, §2
The results of the assay in sarcoma cell lines are given in Table 21a for HT-1080 luc2 (fibrosarcoma expressing a luciferase gene), Table 21b for 143B (osteosarcoma), and Table 21c for SJSA-1 (osteosarcoma).
For orientation: In ATP-based viability assays light output follows the ATP content of the culture.
Consider `C[C@H]1Cc2c([nH]c3ccccc23)[C@H](c2ccc([Si](C)(C)C)cc2)N1C(=O)CCl` [Example 106], for which the 50% inhibitory concentration (IC50) is 11 nM.

With `C[C@H]1Cc2c([nH]c3ccccc23)[C@H](c2ccc(C3CCCCC3)cc2)N1C(=O)CCl` [Example 110], the IC50 was 17 nM.

The subject of the next data set is HT29. Kind of data set: Cell viability assay (CellTiter Glo), colon cancer cell line HT29. The format is cell-based. The conditions noted are these: Homo sapiens, HT-29, 96 hours. The procedure:
as §1, §2
In the case of `C[C@H]1Cc2c([nH]c3ccccc23)[C@H](c2ccc([Si](C)(C)C)cc2)N1C(=O)CCl` [Example 106], the IC50 came to 189 nM.

In turn, `C[C@H]1Cc2c([nH]c3ccccc23)[C@H](c2ccc(C3CCCCC3)cc2)N1C(=O)CCl` [Example 110] gave a 50% inhibitory concentration (IC50) of 112 nM.

Another data set relates to HCC1954. Kind of data set: Cell viability assay (CellTiter Glo), breast cancer cell line HCC1954. The settings on record: Homo sapiens, 96 hours. It is filed as cell-based. As for the experimental part:
as §1, §2
On to `C[C@H]1Cc2c([nH]c3ccccc23)[C@H](c2ccc([Si](C)(C)C)cc2)N1C(=O)CCl` [Example 106], for which the IC50 is 120 nM.

As to `C[C@H]1Cc2c([nH]c3ccccc23)[C@H](c2ccc(C3CCCCC3)cc2)N1C(=O)CCl` [Example 110], the midpoint of inhibition, the IC50, lay at 101 nM.

The next data set relates to Raji. Kind of data set: Cell viability assay (CellTiter Glo), lymphoma cell line Raji. It is filed as cell-based. The conditions noted are these: Homo sapiens, 96 hours. As for the experimental part:
as §1, §2
Regarding `C[C@H]1Cc2c([nH]c3ccccc23)[C@H](c2ccc([Si](C)(C)C)cc2)N1C(=O)CCl` [Example 106], the half-inhibitory concentration (IC50) is 31 nM.

Take `C[C@H]1Cc2c([nH]c3ccccc23)[C@H](c2ccc(C3CCCCC3)cc2)N1C(=O)CCl` [Example 110]: the IC50 was 33 nM.

System in another data set: not listed separately
Kind of data set: Pharmacokinetic (PK) studies in Balb/C nude mice via intraperitoneal injection. The settings on record: male, Balb/c nude, mouse, plasma, ip, 15 mg/kg, Calculated Concentration, IP 15 mg/kg, Balb/C nude mice, 0.5 h, individual mice.
Protocol: Test compounds were dissolved either in 20% (w/w) sulfobutylether-β-cyclodextrin (SBECD) pH 3-7 aqueous solution, or 5% DMSO/(30-50%) PEG400/(65-45%) water. Test compound dosing solutions were administered intraperitoneally to Balb/c nude male mice. Blood samples were collected at various time points with EDTA-K2 as anti-coagulant on ice, and centrifuged to obtain plasma samples. The plasma samples were stored at −20° C. until analysis.
Into 10 μL of test compound plasma samples were added 2 μL DMSO then 200 μL of 5 ng/mL internal standard (VTSD) (Terfenadine) in MeOH/acetonitrile. The mixture was vortexed for 1 minute and centrifuged at 4000 rpm for 15 minutes. Calibration standards were prepared by spiking known amount of test compounds into blank plasma samples. The supernatant solution was diluted 5 times with Acetonitrile/H2O (with 0.1% formic acid, 1:1, v/v), and this is the solution for LC-MS/MS analysis. The limit of quantification (LOQ) was 1 ng/mL.
Typical HPLC mobile phases were mobile phase of 5 mM NH4OAc (with 0.05% formic acid); and mobile phase B of acetonitrile (with 0.1% formic acid). The HPLC column was Kinetex C18 (30 mm×3.00 mm). Mass spectrometer was tuned for each compound in the Multiple Reaction Monitoring (MRM) scanning mode and in the electrospray ionization mode. The lower limit of quantification was 1-10 ng.
In this study, K601 (RSL3) was formulated in 5% DMSO/30% PEG 400/65% water at 1.5 mg/mL. The volume of injection via intraperitoneal route was 10 mL/kg for a dose of 15 mg/kg. […] The limit of quantification (LOQ) was 1 ng/mL.
In this study, the compound was formulated in 20% (w/w) sulfobutylether-β-cyclodextrin (SBECD), pH 5 aqueous solution at 1.5 mg/mL. The volume of injection via intraperitoneal route was 10 mL/kg for a dose of 15 mg/kg. The concentration of test compounds in plasma were analyzed by LC-MS with the method described above. The limit of quantification was 1 ng/mL.
It was formulated in 5% DMSO/50% PEG400/45% Water pH adjusted to 4 with HCl as an aqueous solution at 1.0 mg/mL. The volume of injection via intraperitoneal route was 15 mL/kg for a dose of 15 mg/kg. The concentration of test compounds in plasma were analyzed by LC-MS with the method described above. The limit of quantification was 1 ng/mL. […] The limit of quantification was 1 ng/mL.
Compounds 24 and 28 were formulated in 20% (w/w) sulfobutylether-β-cyclodextrin (SBECD) with pH 3 and pH 4, respectively, as an aqueous solution at 1.0 mg/mL. Compound 67 was in 5% DMSO/50% PEG 400/45% water pH 4 (adjusted with 12 N HCl) aqueous solution at 1.0 mg/mL. The injection volume via intraperitoneal route was 10 mL/kg for a dose of 15 mg/kg. The concentration of test compounds in plasma were analyzed by LC-MS with the method described above. The limit of quantification was 1 ng/mL.
Take `CN(C)C(=O)[C@H]1Cc2c([nH]c3ccccc23)[C@H](c2ccc([Si](C)(C)C)cc2)N1C(=O)CCl` [Example 67]: the concentration at 0.5 h was 90.6 ng/mL.

The same data set, now with this note: male, Balb/c nude, mouse, plasma, ip, 15 mg/kg, Calculated Concentration, IP 15 mg/kg, Balb/C nude mice, 1 h, individual mice.
`CN(C)C(=O)[C@H]1Cc2c([nH]c3ccccc23)[C@H](c2ccc([Si](C)(C)C)cc2)N1C(=O)CCl` [Example 67]: the concentration at 1 h is 38.7 ng/mL.

The data set is the same for the next values; noted with them: male, Balb/c nude, mouse, plasma, ip, 15 mg/kg, Calculated Concentration, IP 15 mg/kg, Balb/C nude mice, 4 h, individual mice.
As to `CN(C)C(=O)[C@H]1Cc2c([nH]c3ccccc23)[C@H](c2ccc([Si](C)(C)C)cc2)N1C(=O)CCl` [Example 67], the concentration at 4 h is 16.6 ng/mL.

Still in this data set, the particulars now being: male, Balb/c nude, mouse, plasma, ip, 15 mg/kg, Calculated Concentration, Mean, IP 15 mg/kg, Balb/C nude mice, 0.5 h, mean of 3 mice.
On to `CN(C)C(=O)[C@H]1Cc2c([nH]c3ccccc23)[C@H](c2ccc([Si](C)(C)C)cc2)N1C(=O)CCl` [Example 67], for which the concentration at 0.5 h is 112 ng/mL.

The same data set, now with this note: male, Balb/c nude, mouse, plasma, ip, 15 mg/kg, Calculated Concentration, Mean, IP 15 mg/kg, Balb/C nude mice, 1 h, mean of 3 mice.
As to `CN(C)C(=O)[C@H]1Cc2c([nH]c3ccccc23)[C@H](c2ccc([Si](C)(C)C)cc2)N1C(=O)CCl` [Example 67], the concentration at 1 h was 51.7 ng/mL.

Staying with this data set, now noted: male, Balb/c nude, mouse, plasma, ip, 15 mg/kg, Calculated Concentration, Mean, IP 15 mg/kg, Balb/C nude mice, 2 h, mean of 3 mice.
In the case of `CN(C)C(=O)[C@H]1Cc2c([nH]c3ccccc23)[C@H](c2ccc([Si](C)(C)C)cc2)N1C(=O)CCl` [Example 67], the concentration at 2 h was 20.2 ng/mL.

The same data set, now with this note: male, Balb/c nude, mouse, plasma, ip, 15 mg/kg, Calculated Concentration, Mean, IP 15 mg/kg, Balb/C nude mice, 4 h, mean of 3 mice.
As for `CN(C)C(=O)[C@H]1Cc2c([nH]c3ccccc23)[C@H](c2ccc([Si](C)(C)C)cc2)N1C(=O)CCl` [Example 67], the concentration at 4 h is 14.4 ng/mL.

The test system of a further data set is MV-4-1. The data set can be described thus: Cell viability assay (CellTiter Glo), leukemia cell line MV-4-1. It is filed as cell-based. The settings on record: 96 hours. As for the experimental part:
as §1, §2
The results of the assay in the leukemia cell lines are given in Table 16a for MV-4-1 and Table 16b for HL-60 and Kasumi-1.
With `C[C@H]1Cc2c([nH]c3ccccc23)[C@H](c2ccc([Si](C)(C)C)cc2)N1C(=O)CCl` [Example 106], the half-maximal inhibitory concentration (IC50) came to 170 nM.

`C[C@H]1Cc2c([nH]c3ccccc23)[C@H](c2ccc(C3CCCCC3)cc2)N1C(=O)CCl` [Example 110]: the IC50 was 164 nM.

Another data set concerns H1299. Kind of data set: Cell viability assay (CellTiter Glo), lung cancer cell line H1299. It is filed as cell-based. The conditions noted are these: Homo sapiens, NCI-H1299, 96 hours. The procedure:
as §1, §2
The molecule `C[C@H]1Cc2c([nH]c3ccccc23)[C@H](c2ccc([Si](C)(C)C)cc2)N1C(=O)CCl` [Example 106] registered an IC50 of 7 nM.

Consider `C[C@H]1Cc2c([nH]c3ccccc23)[C@H](c2ccc(C3CCCCC3)cc2)N1C(=O)CCl` [Example 110], for which the IC50 is 30 nM.

The subject of a further data set is H2228. The data set can be described thus: Cell viability assay (CellTiter Glo), lung cancer cell line H2228. The settings on record: Homo sapiens, NCI-H2228; lung cancer cell line, 96 hours, CellTiter Glo; read-out: IC50 H2228. The format is cell-based. The procedure: as §1, §2
In the case of `C[C@H]1Cc2c([nH]c3ccccc23)[C@H](c2ccc([Si](C)(C)C)cc2)N1C(=O)CCl` [Example 106], the IC50 came to 55 nM.

Take `C[C@H]1Cc2c([nH]c3ccccc23)[C@H](c2ccc(C3CCCCC3)cc2)N1C(=O)CCl` [Example 110]: the IC50 worked out at 51 nM.

The subject of the next data set is REC-1. The data set can be described thus: Cell viability assay (CellTiter Glo), lymphoma cell line REC-1. It is filed as cell-based. The settings on record: Homo sapiens, Rec1, 96 hours. The procedure: as §1, §2
In turn, `C[C@H]1Cc2c([nH]c3ccccc23)[C@H](c2ccc([Si](C)(C)C)cc2)N1C(=O)CCl` [Example 106] yielded an IC50 of 156 nM.

Molecule `C[C@H]1Cc2c([nH]c3ccccc23)[C@H](c2ccc(C3CCCCC3)cc2)N1C(=O)CCl` [Example 110] returned an IC50 of 96 nM.

For a further data set, the system named is SK-OV-3. The data set can be described thus: Cell viability assay (CellTiter Glo), ovarian cancer cell line SK-OV-3. The format is cell-based. The conditions noted are these: Homo sapiens, 96 hours. The procedure: as §1, §2
Consider `C[C@H]1Cc2c([nH]c3ccccc23)[C@H](c2ccc([Si](C)(C)C)cc2)N1C(=O)CCl` [Example 106], for which 87 nM corresponded to half-maximal inhibition (IC50).

In turn, `C[C@H]1Cc2c([nH]c3ccccc23)[C@H](c2ccc(C3CCCCC3)cc2)N1C(=O)CCl` [Example 110] returned an IC50 of 53 nM.

The next data set relates to Huh7. The data set can be described thus: Cell viability assay (CellTiter Glo), hepatocellular carcinoma Huh7. It is filed as cell-based. The conditions noted are these: Homo sapiens, Huh-7, 96 hours. The procedure:
as §1, §2
With `C[C@H]1Cc2c([nH]c3ccccc23)[C@H](c2ccc([Si](C)(C)C)cc2)N1C(=O)CCl` [Example 106], the IC50 was determined as 28 nM.

Take `C[C@H]1Cc2c([nH]c3ccccc23)[C@H](c2ccc(C3CCCCC3)cc2)N1C(=O)CCl` [Example 110]: it took 35 nM to reach half-maximal inhibition (IC50).

Another data set deals with PANC1. The data set can be described thus: Cell viability assay (CellTiter Glo), pancreatic cell line PANC1. It is filed as cell-based. The settings on record: Homo sapiens, PANC-1, 96 hours. The procedure:
as §1, §2
The results of the assay in the pancreatic cell lines are given in Table 15a for PANC1, Table 15b for MiaPaCa-2, and Table 15c for AsPC-1.
The molecule `C[C@H]1Cc2c([nH]c3ccccc23)[C@H](c2ccc([Si](C)(C)C)cc2)N1C(=O)CCl` [Example 106] came in with a 50% inhibitory concentration (IC50) of 55 nM.

As for `C[C@H]1Cc2c([nH]c3ccccc23)[C@H](c2ccc(C3CCCCC3)cc2)N1C(=O)CCl` [Example 110], half-maximal inhibition (IC50) required 72 nM.

Another data set relates to MiaPaCa-2. Kind of data set: Cell viability assay (CellTiter Glo), pancreatic carcinoma MiaPaCa-2. It is filed as cell-based. The conditions noted are these: Homo sapiens, MIA PaCa-2; pancreatic carcinoma, 96 hours, CellTiter Glo; read-out: IC50 MiaPaCa-2. Put shortly:
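MiaPaCa-2 and AsPC-1 cells were seeded overnight at 37 °C and exposed for 96 h to 9-point, 3-fold dilutions from up to 30 μM (final DMSO ≤0.25%). CellTiter Glo luminescence was read, and inhibition was calculated relative to DMSO-only cells. IC50, relative IC50 or % top inhibition was derived.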
As to `CN(C)C(=O)[C@H]1Cc2c([nH]c3ccccc23)[C@H](c2ccc([Si](C)(C)C)cc2)N1C(=O)CCl` [Example 67], the half-inhibitory concentration (IC50) came to 805 nM.
